Common to all, as to test: Kinase panel (mobility shift)
Common to all, as to format: biochemical

The target in one assay is BRK (Homo sapiens, UniProt Q13882). The method in brief:
(§1)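 Tested at a single 5 um concentration within a 299-kinase panel, compounds were scored by electrophoretic mobility shift of a fluorescent substrate into product. Categories: A, 95% or greater; B, 90%-94%; C, 80%-89%.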

Another assay concerns the target P38-b (Homo sapiens, UniProt Q15759). The gist of the method:
as §1

In another assay the target is LCK (Homo sapiens, UniProt P06239). The method in brief:
as §1

The target in a further assay is T1, EPH-B2 (Homo sapiens, UniProt P29323).
T1 sequence (P29323 19-1055): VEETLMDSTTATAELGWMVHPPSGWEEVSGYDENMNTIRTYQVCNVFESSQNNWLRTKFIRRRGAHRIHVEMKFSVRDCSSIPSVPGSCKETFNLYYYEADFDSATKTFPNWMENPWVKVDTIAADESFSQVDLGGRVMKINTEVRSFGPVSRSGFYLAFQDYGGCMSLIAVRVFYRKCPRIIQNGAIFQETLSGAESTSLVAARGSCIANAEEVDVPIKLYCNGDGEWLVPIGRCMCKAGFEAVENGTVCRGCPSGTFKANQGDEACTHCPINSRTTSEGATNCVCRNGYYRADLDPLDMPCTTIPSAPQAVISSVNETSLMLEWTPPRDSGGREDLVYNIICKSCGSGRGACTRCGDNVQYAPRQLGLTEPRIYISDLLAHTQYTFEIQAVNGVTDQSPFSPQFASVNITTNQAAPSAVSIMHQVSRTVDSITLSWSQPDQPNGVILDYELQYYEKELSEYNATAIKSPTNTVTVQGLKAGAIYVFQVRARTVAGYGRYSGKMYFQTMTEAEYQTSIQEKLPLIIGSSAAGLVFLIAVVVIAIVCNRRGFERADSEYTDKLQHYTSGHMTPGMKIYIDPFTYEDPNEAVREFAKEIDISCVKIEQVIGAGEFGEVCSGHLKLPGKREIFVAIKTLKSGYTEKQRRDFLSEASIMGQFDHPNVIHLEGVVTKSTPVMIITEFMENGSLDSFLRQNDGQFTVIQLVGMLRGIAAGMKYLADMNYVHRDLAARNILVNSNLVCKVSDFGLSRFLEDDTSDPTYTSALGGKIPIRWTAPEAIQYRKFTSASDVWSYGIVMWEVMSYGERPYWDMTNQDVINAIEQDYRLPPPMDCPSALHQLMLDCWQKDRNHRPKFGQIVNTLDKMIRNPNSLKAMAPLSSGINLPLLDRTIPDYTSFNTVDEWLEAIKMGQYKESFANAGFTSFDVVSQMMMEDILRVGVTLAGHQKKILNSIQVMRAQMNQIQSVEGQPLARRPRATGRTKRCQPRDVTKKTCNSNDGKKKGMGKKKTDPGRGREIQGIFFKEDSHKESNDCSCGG
Conditions: at 5 um. The gist of the method:
as §1

Another assay deals with EPH-A5 (Homo sapiens, UniProt P54756). The note with it: at 5 um. The gist of the method:
as §1

For the next assay, the target named is T2, EPH-B4 (Homo sapiens, UniProt P54760).
T2 sequence (P54760 16-987): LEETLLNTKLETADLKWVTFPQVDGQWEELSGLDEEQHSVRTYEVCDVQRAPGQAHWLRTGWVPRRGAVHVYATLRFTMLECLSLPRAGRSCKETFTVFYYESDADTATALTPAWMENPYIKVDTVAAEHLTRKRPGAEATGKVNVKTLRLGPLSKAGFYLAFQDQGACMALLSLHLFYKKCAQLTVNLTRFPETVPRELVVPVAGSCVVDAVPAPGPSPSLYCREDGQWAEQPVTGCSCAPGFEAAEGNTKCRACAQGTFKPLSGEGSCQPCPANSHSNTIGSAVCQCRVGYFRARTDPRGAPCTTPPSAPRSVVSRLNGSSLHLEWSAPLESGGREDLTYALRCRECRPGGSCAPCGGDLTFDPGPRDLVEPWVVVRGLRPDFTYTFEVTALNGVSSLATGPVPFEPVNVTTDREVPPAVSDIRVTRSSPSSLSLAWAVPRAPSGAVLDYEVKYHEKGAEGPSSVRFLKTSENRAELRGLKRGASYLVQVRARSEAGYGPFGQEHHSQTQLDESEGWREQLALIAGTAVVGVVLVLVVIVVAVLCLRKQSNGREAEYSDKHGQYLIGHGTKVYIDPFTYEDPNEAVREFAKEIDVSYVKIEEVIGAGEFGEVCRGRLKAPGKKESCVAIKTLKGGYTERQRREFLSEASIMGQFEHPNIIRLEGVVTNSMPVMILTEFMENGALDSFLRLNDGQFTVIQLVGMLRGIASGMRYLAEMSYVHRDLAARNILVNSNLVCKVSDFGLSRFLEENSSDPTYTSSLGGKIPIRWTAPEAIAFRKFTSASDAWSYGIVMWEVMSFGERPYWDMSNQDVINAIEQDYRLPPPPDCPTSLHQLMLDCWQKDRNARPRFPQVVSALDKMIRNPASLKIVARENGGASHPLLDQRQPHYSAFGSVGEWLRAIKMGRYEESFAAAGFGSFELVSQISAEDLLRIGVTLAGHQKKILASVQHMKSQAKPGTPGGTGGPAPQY
The method in brief: as §1

For a further assay, the target named is TRKA (Homo sapiens, UniProt P04629). The gist of the method:
as §1

The next assay deals with LOK (Homo sapiens, UniProt O94804). The note with it: at 5 um. The gist of the method: as §1
A further assay addresses HIPK3 (Homo sapiens, UniProt Q9H422). The gist of the method:
as §1

This note sets out measurements from patent US11629143B2, “HipK4 inhibitors and uses thereof” (Vibliome Therapeutics, LLC, priority 2020, dated 2023).

A value given as a limit tells only on which side of the number the result lay.

Sequence of P38-b (Q15759 whole entry, species assumed): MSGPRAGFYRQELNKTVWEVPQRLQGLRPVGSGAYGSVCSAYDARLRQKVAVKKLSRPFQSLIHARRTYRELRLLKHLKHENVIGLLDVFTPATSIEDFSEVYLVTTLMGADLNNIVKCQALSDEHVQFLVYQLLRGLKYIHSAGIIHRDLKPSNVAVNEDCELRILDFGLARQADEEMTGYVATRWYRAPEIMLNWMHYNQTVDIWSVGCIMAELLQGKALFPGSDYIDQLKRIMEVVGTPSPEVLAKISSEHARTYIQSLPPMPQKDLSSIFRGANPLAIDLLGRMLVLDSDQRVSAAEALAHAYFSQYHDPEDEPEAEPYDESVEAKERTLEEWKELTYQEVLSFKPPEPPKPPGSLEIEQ
Sequence of LOK (O94804 whole entry, species assumed): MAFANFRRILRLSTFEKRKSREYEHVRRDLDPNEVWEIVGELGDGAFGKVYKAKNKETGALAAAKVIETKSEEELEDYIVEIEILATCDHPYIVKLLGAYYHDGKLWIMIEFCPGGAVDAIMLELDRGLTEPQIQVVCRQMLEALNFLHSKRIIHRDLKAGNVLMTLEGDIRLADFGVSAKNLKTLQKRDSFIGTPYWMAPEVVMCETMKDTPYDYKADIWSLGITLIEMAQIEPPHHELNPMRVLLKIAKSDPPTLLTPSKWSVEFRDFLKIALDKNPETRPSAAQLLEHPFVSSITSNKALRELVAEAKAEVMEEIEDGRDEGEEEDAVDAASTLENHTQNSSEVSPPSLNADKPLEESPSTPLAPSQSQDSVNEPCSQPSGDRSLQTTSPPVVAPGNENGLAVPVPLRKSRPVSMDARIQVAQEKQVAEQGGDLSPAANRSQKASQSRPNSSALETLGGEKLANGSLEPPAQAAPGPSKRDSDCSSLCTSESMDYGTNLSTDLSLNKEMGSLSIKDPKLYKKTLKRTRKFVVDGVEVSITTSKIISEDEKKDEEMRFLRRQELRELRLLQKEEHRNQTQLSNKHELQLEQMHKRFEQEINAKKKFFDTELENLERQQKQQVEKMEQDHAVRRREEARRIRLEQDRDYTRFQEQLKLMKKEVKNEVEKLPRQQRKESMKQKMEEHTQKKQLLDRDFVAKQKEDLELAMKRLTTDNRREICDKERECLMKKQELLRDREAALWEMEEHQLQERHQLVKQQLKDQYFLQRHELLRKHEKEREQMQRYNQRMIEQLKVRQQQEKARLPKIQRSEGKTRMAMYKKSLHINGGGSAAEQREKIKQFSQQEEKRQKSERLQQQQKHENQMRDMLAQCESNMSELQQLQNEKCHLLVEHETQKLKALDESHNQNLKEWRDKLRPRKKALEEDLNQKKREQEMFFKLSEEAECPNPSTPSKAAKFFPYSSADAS
Sequence of TRKA (P04629 33-796, species assumed): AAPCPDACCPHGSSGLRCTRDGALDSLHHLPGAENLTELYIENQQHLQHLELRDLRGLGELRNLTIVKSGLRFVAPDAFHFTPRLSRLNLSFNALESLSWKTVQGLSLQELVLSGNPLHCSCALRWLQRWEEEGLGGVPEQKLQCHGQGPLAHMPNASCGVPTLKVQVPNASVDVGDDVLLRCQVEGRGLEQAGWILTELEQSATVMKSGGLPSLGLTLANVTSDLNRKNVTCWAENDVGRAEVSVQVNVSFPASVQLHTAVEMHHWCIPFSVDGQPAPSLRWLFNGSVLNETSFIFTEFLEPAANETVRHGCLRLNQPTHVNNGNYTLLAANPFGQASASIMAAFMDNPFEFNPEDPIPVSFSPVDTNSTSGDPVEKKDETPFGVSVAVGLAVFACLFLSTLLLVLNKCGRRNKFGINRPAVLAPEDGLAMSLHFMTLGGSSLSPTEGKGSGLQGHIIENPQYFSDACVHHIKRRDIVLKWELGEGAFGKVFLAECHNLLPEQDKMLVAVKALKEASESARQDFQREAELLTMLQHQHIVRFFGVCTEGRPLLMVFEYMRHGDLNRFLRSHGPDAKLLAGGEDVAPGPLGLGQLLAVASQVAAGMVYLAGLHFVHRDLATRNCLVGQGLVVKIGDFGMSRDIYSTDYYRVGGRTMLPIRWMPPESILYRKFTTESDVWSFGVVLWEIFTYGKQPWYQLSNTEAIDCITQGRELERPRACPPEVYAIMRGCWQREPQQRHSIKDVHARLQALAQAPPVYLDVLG
Sequence of HIPK3 (Q9H422 whole entry, species assumed): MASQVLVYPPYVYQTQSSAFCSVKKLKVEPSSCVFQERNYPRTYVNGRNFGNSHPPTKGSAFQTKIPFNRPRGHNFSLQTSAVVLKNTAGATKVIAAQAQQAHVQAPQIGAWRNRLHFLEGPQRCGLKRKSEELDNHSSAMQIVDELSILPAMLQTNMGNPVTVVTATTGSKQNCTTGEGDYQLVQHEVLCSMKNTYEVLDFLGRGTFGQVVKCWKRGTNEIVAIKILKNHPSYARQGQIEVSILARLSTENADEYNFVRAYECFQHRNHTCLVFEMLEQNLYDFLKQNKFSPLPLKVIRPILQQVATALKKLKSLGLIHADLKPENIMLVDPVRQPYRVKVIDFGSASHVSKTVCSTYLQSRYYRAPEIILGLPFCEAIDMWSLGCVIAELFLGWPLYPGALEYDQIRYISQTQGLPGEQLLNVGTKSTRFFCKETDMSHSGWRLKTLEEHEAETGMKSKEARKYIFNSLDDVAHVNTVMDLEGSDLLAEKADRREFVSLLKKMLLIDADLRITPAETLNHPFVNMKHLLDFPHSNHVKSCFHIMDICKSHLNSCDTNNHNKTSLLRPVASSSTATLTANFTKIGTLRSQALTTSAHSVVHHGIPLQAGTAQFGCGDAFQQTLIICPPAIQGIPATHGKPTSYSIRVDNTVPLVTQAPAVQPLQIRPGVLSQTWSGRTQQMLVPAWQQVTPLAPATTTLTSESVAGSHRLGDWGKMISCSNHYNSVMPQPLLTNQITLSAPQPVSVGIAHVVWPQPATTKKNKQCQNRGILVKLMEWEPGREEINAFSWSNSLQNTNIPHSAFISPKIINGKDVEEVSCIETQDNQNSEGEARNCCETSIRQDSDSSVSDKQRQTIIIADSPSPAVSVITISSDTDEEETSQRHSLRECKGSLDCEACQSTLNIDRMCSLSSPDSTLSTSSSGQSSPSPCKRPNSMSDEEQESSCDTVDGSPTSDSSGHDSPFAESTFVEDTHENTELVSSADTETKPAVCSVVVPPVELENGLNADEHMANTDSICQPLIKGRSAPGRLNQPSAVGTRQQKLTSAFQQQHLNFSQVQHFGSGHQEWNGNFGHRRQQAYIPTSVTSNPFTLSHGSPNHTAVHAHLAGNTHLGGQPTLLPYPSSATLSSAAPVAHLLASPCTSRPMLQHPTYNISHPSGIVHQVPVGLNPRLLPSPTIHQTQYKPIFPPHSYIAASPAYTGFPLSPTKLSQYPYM
Sequence of BRK (Q13882 whole entry, species assumed): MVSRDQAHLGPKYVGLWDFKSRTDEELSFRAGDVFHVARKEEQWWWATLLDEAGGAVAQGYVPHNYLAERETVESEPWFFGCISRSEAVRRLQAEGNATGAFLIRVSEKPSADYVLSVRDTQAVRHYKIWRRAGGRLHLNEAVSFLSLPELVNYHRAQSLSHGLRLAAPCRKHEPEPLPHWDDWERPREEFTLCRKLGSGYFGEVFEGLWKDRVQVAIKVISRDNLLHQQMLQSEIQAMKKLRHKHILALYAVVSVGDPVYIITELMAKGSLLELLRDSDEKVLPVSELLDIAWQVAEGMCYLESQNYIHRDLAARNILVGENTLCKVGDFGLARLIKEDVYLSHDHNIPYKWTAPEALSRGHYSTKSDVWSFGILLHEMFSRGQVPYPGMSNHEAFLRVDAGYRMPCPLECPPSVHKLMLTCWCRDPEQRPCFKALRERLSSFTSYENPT
Sequence of EPH-A5 (P54756 25-1037, species assumed): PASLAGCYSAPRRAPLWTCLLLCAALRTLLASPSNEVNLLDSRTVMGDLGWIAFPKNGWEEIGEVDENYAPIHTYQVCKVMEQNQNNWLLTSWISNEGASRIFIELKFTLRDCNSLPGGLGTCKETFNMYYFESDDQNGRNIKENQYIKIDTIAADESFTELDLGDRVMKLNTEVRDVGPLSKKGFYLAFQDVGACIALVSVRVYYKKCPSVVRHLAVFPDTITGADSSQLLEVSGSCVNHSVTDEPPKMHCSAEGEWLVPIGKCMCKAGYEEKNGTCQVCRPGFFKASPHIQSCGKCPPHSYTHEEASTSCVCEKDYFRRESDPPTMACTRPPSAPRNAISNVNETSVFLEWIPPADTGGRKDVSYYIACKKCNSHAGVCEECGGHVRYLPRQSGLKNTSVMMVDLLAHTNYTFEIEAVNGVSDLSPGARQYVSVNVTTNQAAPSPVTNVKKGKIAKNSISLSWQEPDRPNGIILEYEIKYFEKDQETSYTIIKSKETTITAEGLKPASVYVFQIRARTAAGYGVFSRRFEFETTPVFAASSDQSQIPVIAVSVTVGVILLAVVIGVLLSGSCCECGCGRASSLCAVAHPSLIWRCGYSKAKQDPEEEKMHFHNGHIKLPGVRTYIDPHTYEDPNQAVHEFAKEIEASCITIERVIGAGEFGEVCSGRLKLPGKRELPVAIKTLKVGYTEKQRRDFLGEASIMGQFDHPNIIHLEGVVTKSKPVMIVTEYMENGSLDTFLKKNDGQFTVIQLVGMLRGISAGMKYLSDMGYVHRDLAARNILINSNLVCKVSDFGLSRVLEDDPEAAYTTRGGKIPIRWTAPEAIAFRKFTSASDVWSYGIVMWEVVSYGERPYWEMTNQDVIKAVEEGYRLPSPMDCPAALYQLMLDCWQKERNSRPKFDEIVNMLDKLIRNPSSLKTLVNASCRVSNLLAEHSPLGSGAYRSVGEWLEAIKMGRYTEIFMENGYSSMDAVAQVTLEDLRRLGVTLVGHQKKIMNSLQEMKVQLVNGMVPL

Regarding `CSc1nc(C(=O)Nc2ccc(Oc3ccnc(C(=O)NC4COC4)c3)c(F)c2)c(-c2ccc(F)c(F)c2)o1` [Compound 37], the inhibition at 5 µM on BRK, at P38-b, at LCK, on EPH-B4, at TRKA and on HIPK3 was under 50% in each case. At EPH-B2, the “inhibition of kinase activity, EPH-B2” value is reported as “E (category E is less than 50%)”. Also, the “inhibition of kinase activity, EPH-A5” value at EPH-A5 is reported as “E (category E is less than 50%)”. On LOK, the “inhibition of kinase activity, LOK” value is given as “E (category E is less than 50%)”.
For `CNC(=O)c1cc(Oc2ccc(NC(=O)c3nc(OCC(F)(F)F)oc3-c3ccc(F)cc3)cc2F)ccn1` [Compound 38], the inhibition at 5 µM at BRK is 90 to 94%; on P38-b, under 50%; at LCK, 50 to 79%; at EPH-B4, 50 to 79%; at TRKA it was 50 to 79%; at HIPK3 it was 50 to 79%. The “inhibition of kinase activity, EPH-B2” value on EPH-B2 is “E (category E is less than 50%)”. Also, the “inhibition of kinase activity, EPH-A5” value on EPH-A5 was “E (category E is less than 50%)”. For the same compound, the “inhibition of kinase activity, LOK” value at LOK was “C (C=80%-89% at 5 um)”.
Regarding `COc1nc(C(=O)Nc2ccc(Oc3ccnc(C(=O)NC4COC4)c3)c(F)c2)c(-c2ccc(F)cc2)o1` [Compound 39], the inhibition at 5 µM was 50 to 79% at BRK; under 50% on P38-b; under 50% at LCK; under 50% at EPH-B4; under 50% at TRKA; under 50% at HIPK3. Besides, on EPH-B2, the “inhibition of kinase activity, EPH-B2” value is “E (category E is less than 50%)”. Besides, the “inhibition of kinase activity, EPH-A5” value on EPH-A5 is given as “E (category E is less than 50%)”. Moreover, the “inhibition of kinase activity, LOK” value on LOK is reported as “E (category E is less than 50%)”.
`CSc1nc(C(=O)Nc2ccc(Oc3ccnc(C(=O)NCC(F)(F)F)c3)c(F)c2)c(-c2ccc(F)cc2)o1` [Compound 40]: the inhibition at 5 µM on BRK was 50 to 79%; on P38-b, under 50%; on LCK it was under 50%; at EPH-B4 it was under 50%; on TRKA, under 50%; at HIPK3 it was under 50%. Also, on EPH-B2, the “inhibition of kinase activity, EPH-B2” value was “E (category E is less than 50%)”. Moreover, at EPH-A5, the “inhibition of kinase activity, EPH-A5” value was “E (category E is less than 50%)”. Also, the “inhibition of kinase activity, LOK” value at LOK is given as “E (category E is less than 50%)”.
With `CSc1nc(C(=O)Nc2ccc(Oc3ccnc(C(=O)NCCN(C)C)c3)c(F)c2)c(-c2ccc(F)cc2)o1` [Compound 41], the inhibition at 5 µM on BRK is at least 95%; at P38-b, 80 to 89%; at LCK, 50 to 79%; on EPH-B4 it was under 50%; at TRKA, under 50%; on HIPK3, under 50%. Moreover, the “inhibition of kinase activity, EPH-B2” value on EPH-B2 is reported as “D (category D for 50-79)”. Besides, the “inhibition of kinase activity, EPH-A5” value on EPH-A5 is on record as “D (category D for 50-79)”. In addition, the “inhibition of kinase activity, LOK” value on LOK is “E (category E is less than 50%)”.
Regarding `CSc1nc(C(=O)Nc2ccc(Oc3ccnc(C(=O)NC4CCN(C)CC4)c3)c(F)c2)c(-c2ccc(F)cc2)o1` [Compound 42], the inhibition at 5 µM at BRK is at least 95%; on P38-b it was 80 to 89%; at LCK it was under 50%; on EPH-B4, under 50%; on TRKA, under 50%; at HIPK3, 50 to 79%. Besides, the “inhibition of kinase activity, EPH-B2” value at EPH-B2 is listed as “E (category E is less than 50%)”. Also, the “inhibition of kinase activity, EPH-A5” value on EPH-A5 is listed as “E (category E is less than 50%)”. Also, on LOK, the “inhibition of kinase activity, LOK” value is on record as “E (category E is less than 50%)”.
As to `COc1nc(C(=O)Nc2ccc(Oc3ccnc(C(=O)NCC(F)(F)F)c3)c(F)c2)c(-c2ccc(F)cc2)o1` [Compound 43], the inhibition at 5 µM at BRK, on P38-b, on LCK, at EPH-B4, on TRKA and at HIPK3 was under 50% throughout. Besides, the “inhibition of kinase activity, EPH-B2” value on EPH-B2 is listed as “E (category E is less than 50%)”. The “inhibition of kinase activity, EPH-A5” value at EPH-A5 is on record as “E (category E is less than 50%)”. Besides, the “inhibition of kinase activity, LOK” value at LOK was “E (category E is less than 50%)”.
